Converted amounts (≈) assume the structure as drawn. Where two headings read alike, the source gives them in different places.

As a reminder, the MIC is the lowest concentration found to suppress growth. As a reminder, the IC50 is the concentration at which inhibition is half-maximal.

The subject of one assay is C. albicans. The assay is described as follows: Antifungal Activity Assay (broth microtiter MIC), C. albicans. In kind it is cell-based, Candida albicans. Particulars: Candida albicans, ATCC90028, 48 h. An outline of the steps:
(§1)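 MIC read by eye at 48 h, comparing challenged wells with the growth control. Yeasts grown overnight on Sabouraud dextrose agar at 35° C, suspended in RPMI 1640+MOPS and added at 2.5×10^3 CFU/mL final, following CLSI M27-A3.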

Another assay has as its system Septoria tritici (St). The assay is described as follows: Growth inhibition assay of fungal pathogens, St. Particulars: Zymoseptoria tritici, 48 h. The format is cell-based. An outline of the steps: (§2)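 Spores diluted in 17% V8 liquid media and incubated with compound at final 50, 10, 2 ppm or 2, 0.4, 0.08 ppm (2% DMSO). OD600 plus visual ratings at 24 and 48 hours, blank-subtracted; percent growth inhibition from 48 h readings relative to 2% DMSO control.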

The next assay relates to Rhizoctonia solani (Rs). Briefly: Growth inhibition assay of fungal pathogens, Rs. In kind it is cell-based. As to conditions: 48 h.
Assay [1] concerns Phytophthora capsici (Pc). Briefly: Growth inhibition assay of fungal pathogens, Pc. In kind it is cell-based. Particulars: 48 h. In short, it runs like this:
as §2

Assay [2] has as its system Collectotrichum graminicola (Cg). Briefly: Growth inhibition assay of fungal pathogens, Cg. The format is cell-based. Particulars: 48 h. In short, it runs like this:
as §2

The target in a further assay is fungal (fACC2) (UniProt Q00955). As to conditions: read-out: fACC2 (in vitro ACC2 Inhibition Assay, IC50), ADP-Glo, 5 nM ACC2, 20 μM ATP, 20 μM acetyl-CoA.
Sequence of fungal (fACC2) (Q00955 whole entry): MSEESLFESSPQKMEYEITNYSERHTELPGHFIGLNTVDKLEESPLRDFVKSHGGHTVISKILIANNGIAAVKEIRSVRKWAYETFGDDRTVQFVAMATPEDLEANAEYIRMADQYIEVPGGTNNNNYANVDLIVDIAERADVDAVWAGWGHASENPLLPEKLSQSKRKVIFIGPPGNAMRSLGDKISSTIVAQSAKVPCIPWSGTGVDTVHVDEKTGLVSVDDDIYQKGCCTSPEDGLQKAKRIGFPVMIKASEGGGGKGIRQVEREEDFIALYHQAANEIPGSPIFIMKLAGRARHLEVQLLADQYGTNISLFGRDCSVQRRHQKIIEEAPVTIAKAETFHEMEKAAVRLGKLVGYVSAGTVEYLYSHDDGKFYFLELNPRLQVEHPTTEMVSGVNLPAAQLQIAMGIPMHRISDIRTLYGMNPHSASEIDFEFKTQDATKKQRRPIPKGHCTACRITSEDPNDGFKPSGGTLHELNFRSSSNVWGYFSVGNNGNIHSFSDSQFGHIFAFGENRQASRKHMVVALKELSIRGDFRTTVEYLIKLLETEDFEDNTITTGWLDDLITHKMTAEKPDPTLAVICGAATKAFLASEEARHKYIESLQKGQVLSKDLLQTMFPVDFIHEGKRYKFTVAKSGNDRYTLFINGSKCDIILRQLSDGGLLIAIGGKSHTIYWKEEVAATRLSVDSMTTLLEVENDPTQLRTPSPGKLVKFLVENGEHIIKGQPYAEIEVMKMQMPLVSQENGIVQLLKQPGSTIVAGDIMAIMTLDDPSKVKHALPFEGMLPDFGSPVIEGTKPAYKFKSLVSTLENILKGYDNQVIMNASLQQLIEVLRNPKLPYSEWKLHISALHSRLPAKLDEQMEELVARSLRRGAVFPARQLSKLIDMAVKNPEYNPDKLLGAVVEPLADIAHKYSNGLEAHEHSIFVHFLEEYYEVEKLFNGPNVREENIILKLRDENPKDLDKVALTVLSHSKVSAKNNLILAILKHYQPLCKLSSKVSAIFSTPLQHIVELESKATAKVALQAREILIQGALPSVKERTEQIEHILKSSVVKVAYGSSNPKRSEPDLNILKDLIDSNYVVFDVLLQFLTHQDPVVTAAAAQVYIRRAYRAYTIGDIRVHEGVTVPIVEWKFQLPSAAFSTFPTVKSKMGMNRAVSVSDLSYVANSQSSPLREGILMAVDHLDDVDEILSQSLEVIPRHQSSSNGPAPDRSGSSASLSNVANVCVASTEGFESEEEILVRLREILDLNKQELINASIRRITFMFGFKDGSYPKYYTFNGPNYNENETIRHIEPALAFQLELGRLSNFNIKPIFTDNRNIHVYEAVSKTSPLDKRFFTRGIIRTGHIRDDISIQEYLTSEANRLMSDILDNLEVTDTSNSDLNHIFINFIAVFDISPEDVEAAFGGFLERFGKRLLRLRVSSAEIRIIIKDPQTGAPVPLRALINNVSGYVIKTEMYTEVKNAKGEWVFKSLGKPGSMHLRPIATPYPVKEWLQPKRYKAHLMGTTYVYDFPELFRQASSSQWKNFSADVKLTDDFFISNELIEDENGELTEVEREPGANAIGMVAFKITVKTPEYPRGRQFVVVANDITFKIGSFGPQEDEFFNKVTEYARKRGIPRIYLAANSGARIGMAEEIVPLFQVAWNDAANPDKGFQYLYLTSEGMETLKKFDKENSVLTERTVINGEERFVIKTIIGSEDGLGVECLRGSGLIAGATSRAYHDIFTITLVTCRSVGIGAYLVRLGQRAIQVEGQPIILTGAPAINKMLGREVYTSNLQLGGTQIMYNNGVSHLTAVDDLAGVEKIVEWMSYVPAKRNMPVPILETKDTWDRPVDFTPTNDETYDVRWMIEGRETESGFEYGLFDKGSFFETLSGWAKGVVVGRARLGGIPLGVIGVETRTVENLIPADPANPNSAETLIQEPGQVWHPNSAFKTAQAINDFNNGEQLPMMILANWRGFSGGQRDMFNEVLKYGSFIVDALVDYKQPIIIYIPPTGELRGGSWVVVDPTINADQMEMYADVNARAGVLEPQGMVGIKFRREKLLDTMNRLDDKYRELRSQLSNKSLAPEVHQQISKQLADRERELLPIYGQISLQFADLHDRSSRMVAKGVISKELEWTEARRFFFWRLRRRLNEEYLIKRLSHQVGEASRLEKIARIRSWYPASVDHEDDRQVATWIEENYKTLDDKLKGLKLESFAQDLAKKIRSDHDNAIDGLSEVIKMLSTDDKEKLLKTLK
In a further assay the test system is Diplodia maydis (Dm). The assay is described as follows: Growth inhibition assay of fungal pathogens, Dm. The format is cell-based. Particulars: Stenocarpella maydis, 48 h. An outline of the steps: as §2
For another assay, the system named is C. parapsilosis. Briefly: Antifungal Activity Assay (broth microtiter MIC), C. parapsilosis. As to conditions: Lodderomyces parapsilosis, ATCC22019, 48 h. In kind it is cell-based, Candida parapsilosis. In short, it runs like this:
as §1

In the next assay the test system is Botrtyis cinerea (Bc). Briefly: Growth inhibition assay of fungal pathogens, Bc. In kind it is cell-based. As to conditions: 48 h. In short, it runs like this:
as §2

The next assay addresses human (hACC2) (Homo sapiens, UniProt O00763). The assay is described as follows: In vitro ACC inhibition assay (ADP-Glo), hACC2. In kind it is biochemical. As to conditions: 5 nM ACC2, 20 μM ATP, 20 μM acetyl-CoA. On the procedure: The detailed procedure is as follows. […] 10 μL ADP glo reagent was added. […] 20 μL kinase detection reagent was added.
Where [3] appears, read: Table 3a, ATCC 90028, 3 replicates, MIC recorded at 48 h, read-out: MIC, C. albicans ATCC 90028.
The mark [4] stands for this setting: Table 3b (additional results), ATCC 90028, 3 replicates, MIC recorded at 48 h, read-out: MIC, C. albicans ATCC 90028.
[5] abbreviates: Septoria tritici, growth inhibition at 48 hours vs 2% DMSO control, read-out: Concentration at 90% Inhibition St.
[6] abbreviates: Septoria tritici, growth inhibition vs 2% DMSO control at 48 hours, read-out: Concentration at 90% Inhibition St.
Setting [7] is: mycelial plugs, growth inhibition at 48 hours vs 2% DMSO control, read-out: Concentration at 90% Inhibition Rs.
Setting [8] is: mycelial plugs, growth inhibition vs 2% DMSO control at 48 hours, read-out: Concentration at 90% Inhibition Rs.
The mark [9] stands for this setting: growth inhibition at 48 hours vs 2% DMSO control, read-out: Concentration at 90% Inhibition Pc.
Setting [10] is: growth inhibition vs 2% DMSO control at 48 hours, read-out: Concentration at 90% Inhibition Pc.
Where [11] appears, read: Collectotrichum graminicola, growth inhibition at 48 hours vs 2% DMSO control, read-out: Concentration at 90% Inhibition Cg.
Setting [12] is: Collectotrichum graminicola, growth inhibition vs 2% DMSO control at 48 hours, read-out: Concentration at 90% Inhibition Cg.
Setting [13] is: Diplodia maydis, growth inhibition at 48 hours vs 2% DMSO control, read-out: Concentration at 90% Inhibition Dm.
[14] abbreviates: Diplodia maydis, growth inhibition vs 2% DMSO control at 48 hours, read-out: Concentration at 90% Inhibition Dm.
Where [15] appears, read: Table 3a, ATCC 22019, 3 replicates, MIC recorded at 48 h, read-out: MIC, C. parapsilosis ATCC 22019.
Where [16] appears, read: Table 3b (additional results), ATCC 22019, 3 replicates, MIC recorded at 48 h, read-out: MIC, C. parapsilosis ATCC 22019.
[17] abbreviates: Botrtyis cinerea, growth inhibition at 48 hours vs 2% DMSO control, read-out: Concentration at 90% Inhibition Bc.
The mark [18] stands for this setting: Botrtyis cinerea, growth inhibition vs 2% DMSO control at 48 hours, read-out: Concentration at 90% Inhibition Bc.

Sequence of human (hACC2) (O00763 whole entry): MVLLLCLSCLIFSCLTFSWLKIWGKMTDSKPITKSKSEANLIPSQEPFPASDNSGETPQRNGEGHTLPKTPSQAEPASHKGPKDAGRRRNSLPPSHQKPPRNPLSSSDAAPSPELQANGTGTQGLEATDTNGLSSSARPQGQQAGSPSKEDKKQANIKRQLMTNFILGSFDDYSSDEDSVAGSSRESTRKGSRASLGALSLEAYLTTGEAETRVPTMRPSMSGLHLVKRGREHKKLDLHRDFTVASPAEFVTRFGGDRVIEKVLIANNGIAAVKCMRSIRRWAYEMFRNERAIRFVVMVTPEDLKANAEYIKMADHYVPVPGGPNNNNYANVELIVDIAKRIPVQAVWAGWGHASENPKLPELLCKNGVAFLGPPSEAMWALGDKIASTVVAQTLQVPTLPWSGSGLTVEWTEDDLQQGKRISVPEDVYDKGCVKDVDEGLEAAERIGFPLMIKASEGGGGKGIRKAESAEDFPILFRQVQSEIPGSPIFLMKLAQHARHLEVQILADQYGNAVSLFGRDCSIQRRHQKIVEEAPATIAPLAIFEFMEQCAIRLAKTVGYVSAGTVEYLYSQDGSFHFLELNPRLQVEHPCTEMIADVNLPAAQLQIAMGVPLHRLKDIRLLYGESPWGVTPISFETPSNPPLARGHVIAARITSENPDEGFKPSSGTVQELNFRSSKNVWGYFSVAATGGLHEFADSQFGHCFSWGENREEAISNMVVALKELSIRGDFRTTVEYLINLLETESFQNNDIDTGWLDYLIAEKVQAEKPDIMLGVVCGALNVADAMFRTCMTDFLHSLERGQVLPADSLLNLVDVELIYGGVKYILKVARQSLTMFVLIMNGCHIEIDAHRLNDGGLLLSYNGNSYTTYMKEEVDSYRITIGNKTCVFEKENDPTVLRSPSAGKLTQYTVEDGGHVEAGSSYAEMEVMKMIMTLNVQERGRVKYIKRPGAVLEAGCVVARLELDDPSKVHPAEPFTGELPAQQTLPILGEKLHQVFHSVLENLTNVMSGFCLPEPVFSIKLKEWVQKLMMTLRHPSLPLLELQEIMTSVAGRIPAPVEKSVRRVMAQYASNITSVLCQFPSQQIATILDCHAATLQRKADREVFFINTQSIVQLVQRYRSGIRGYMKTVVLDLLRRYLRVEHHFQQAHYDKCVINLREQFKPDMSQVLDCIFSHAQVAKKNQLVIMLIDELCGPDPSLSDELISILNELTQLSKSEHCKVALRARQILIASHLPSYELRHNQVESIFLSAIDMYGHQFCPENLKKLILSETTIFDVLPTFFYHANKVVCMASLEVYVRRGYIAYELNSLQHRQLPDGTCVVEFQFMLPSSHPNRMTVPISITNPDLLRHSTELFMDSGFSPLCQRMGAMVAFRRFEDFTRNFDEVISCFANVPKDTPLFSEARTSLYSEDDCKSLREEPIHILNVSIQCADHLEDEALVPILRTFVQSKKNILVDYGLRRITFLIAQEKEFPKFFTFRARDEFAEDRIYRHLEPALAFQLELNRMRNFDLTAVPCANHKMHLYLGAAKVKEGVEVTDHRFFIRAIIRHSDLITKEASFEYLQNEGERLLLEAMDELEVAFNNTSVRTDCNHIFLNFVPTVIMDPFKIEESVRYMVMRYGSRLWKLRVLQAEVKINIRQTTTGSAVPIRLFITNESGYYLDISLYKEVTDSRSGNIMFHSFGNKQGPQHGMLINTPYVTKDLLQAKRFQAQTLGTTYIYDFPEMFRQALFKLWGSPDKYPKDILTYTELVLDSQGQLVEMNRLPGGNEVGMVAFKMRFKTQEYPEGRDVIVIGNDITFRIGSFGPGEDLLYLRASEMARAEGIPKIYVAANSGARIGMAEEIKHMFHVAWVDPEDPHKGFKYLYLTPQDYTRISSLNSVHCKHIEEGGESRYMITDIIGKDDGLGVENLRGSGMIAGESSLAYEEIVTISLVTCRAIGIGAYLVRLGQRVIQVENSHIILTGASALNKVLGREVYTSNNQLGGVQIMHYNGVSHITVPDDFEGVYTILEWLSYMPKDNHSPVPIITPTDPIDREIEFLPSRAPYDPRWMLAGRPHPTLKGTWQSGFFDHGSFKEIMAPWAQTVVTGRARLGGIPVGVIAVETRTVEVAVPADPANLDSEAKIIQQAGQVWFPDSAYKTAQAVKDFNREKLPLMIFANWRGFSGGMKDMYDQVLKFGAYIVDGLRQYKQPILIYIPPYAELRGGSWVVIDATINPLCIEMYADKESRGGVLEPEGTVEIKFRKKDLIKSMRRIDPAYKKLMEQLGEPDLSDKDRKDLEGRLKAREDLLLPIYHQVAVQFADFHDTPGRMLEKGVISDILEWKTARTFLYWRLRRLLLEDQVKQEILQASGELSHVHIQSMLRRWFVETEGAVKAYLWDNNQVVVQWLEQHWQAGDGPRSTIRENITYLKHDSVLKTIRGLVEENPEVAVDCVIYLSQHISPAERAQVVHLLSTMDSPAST

For `COc1ccc(F)cc1[C@H](Cn1c(=O)n(C(C)(C)C(=O)NC2CCC2)c(=O)c2c(C)c(-n3nccn3)sc21)OC1CCOCC1` [Compound I-27, (R)—N-cyclobutyl-2-(1-(2-(5-fluoro-2-methoxyphenyl)-2-((tetrahydro-2H-pyran-4-yl)oxy)ethyl)-5-methyl-2,4-dioxo-6-(2H-1,2,3-triazol-2-yl)-1,4-dihydrothieno[2,3-d]pyrimidin-3(2H)-yl)-2-methylpropanamide], the MIC in the assay on C. albicans (setting [3]), in the assay on C. albicans (setting [4]), with C. parapsilosis (setting [15]) and in the assay with C. parapsilosis (setting [16]) was 0.25 to 1 µg/mL (≈ 0.39 to 1.56 µM) throughout. For the same compound, the IC90 with Septoria tritici (St) (setting [5]) was 2 µg/mL (≈ 3.12 µM); with Septoria tritici (St) (setting [6]) it was 10 µg/mL (≈ 15.6 µM); in the assay on Rhizoctonia solani (Rs) (setting [7]), 0.08 µg/mL (≈ 0.125 µM); in the assay with Rhizoctonia solani (Rs) (setting [8]), 0.08 µg/mL (≈ 0.125 µM); in assay [1] (setting [9]), 10 µg/mL (≈ 15.6 µM); in assay [1] (setting [10]), more than 50 µg/mL. Besides, the IC90 (in [2] (setting [11]); in assay [2] (setting [12]); in the assay on Diplodia maydis (Dm) (setting [13]); with Diplodia maydis (Dm) (setting [14]); in the assay on Botrtyis cinerea (Bc) (setting [17]); in the assay with Botrtyis cinerea (Bc) (setting [18])) was 0.4 µg/mL (≈ 0.624 µM) each time. Also, the IC50 on fungal (fACC2) (Table 2a) was in the range of 1 to 5 nM; on fungal (fACC2) (Table 2b, additional results), 1 to 5 nM; at human (hACC2) (Table 2a), 5 to 10 nM; against human (hACC2) (Table 2b, additional results), 5 to 10 nM.
With `COc1ccc(F)cc1[C@H](Cn1c(=O)n(C(C)(C)C(=O)NC2CCCCC2)c(=O)c2c(C)c(-n3nccn3)sc21)OC1CCOCC1` [Compound I-28, (R)—N-cyclohexyl-2-(1-(2-(5-fluoro-2-methoxyphenyl)-2-((tetrahydro-2H-pyran-4-yl)oxy)ethyl)-5-methyl-2,4-dioxo-6-(2H-1,2,3-triazol-2-yl)-1,4-dihydrothieno[2,3-d]pyrimidin-3(2H)-yl)-2-methylpropanamide], the MIC in the assay with C. albicans (read-out: MIC, C. albicans ATCC 90028, Table 3a, 3 replicates, MIC recorded at 48 h) is 0.25 to 1 µg/mL (≈ 0.374 to 1.5 µM); in the assay on C. albicans (read-out: MIC, C. albicans ATCC 90028, Table 3b (additional results), 3 replicates, MIC recorded at 48 h) it was 0.25 to 1 µg/mL (≈ 0.374 to 1.5 µM); in the assay with C. parapsilosis (read-out: MIC, C. parapsilosis ATCC 22019, Table 3a, 3 replicates, MIC recorded at 48 h), 0.25 to 1 µg/mL (≈ 0.374 to 1.5 µM); with C. parapsilosis (read-out: MIC, C. parapsilosis ATCC 22019, Table 3b (additional results), 3 replicates, MIC recorded at 48 h) it was 0.25 to 1 µg/mL (≈ 0.374 to 1.5 µM). Further, the IC90 with Septoria tritici (St) (read-out: Concentration at 90% Inhibition St, Septoria tritici, growth inhibition at 48 hours vs 2% DMSO control) was 2 µg/mL (≈ 2.99 µM); in the assay on Septoria tritici (St) (read-out: Concentration at 90% Inhibition St, Septoria tritici, growth inhibition vs 2% DMSO control at 48 hours), 10 µg/mL (≈ 15 µM); in the assay on Rhizoctonia solani (Rs) (read-out: Concentration at 90% Inhibition Rs, Rhizoctonia solani, mycelial plugs, growth inhibition at 48 hours vs 2% DMSO control) it was 0.4 µg/mL (≈ 0.598 µM); with Rhizoctonia solani (Rs) (read-out: Concentration at 90% Inhibition Rs, Rhizoctonia solani, mycelial plugs, growth inhibition vs 2% DMSO control at 48 hours), 0.4 µg/mL (≈ 0.598 µM); in assay [1] (read-out: Concentration at 90% Inhibition Pc, Phytophthora capsici, growth inhibition at 48 hours vs 2% DMSO control) it was more than 50 µg/mL; in [1] (read-out: Concentration at 90% Inhibition Pc, Phytophthora capsici, growth inhibition vs 2% DMSO control at 48 hours), more than 50 µg/mL. Besides, the IC90 in [2] (read-out: Concentration at 90% Inhibition Cg, Collectotrichum graminicola, growth inhibition at 48 hours vs 2% DMSO control) is 2 µg/mL (≈ 2.99 µM); in assay [2] (read-out: Concentration at 90% Inhibition Cg, Collectotrichum graminicola, growth inhibition vs 2% DMSO control at 48 hours) it was 2 µg/mL (≈ 2.99 µM); in the assay on Diplodia maydis (Dm) (read-out: Concentration at 90% Inhibition Dm, Diplodia maydis, growth inhibition at 48 hours vs 2% DMSO control), 0.4 µg/mL (≈ 0.598 µM); with Diplodia maydis (Dm) (read-out: Concentration at 90% Inhibition Dm, Diplodia maydis, growth inhibition vs 2% DMSO control at 48 hours) it was 0.4 µg/mL (≈ 0.598 µM); in the assay on Botrtyis cinerea (Bc) (read-out: Concentration at 90% Inhibition Bc, Botrtyis cinerea, growth inhibition at 48 hours vs 2% DMSO control), 0.4 µg/mL (≈ 0.598 µM); in the assay on Botrtyis cinerea (Bc) (read-out: Concentration at 90% Inhibition Bc, Botrtyis cinerea, growth inhibition vs 2% DMSO control at 48 hours) it was 0.4 µg/mL (≈ 0.598 µM). Besides, the IC50 at fungal (fACC2) (Table 2a) is 1 to 5 nM; at fungal (fACC2) (Table 2b, additional results) it was 1 to 5 nM; on human (hACC2) (Table 2a) it was 10 to 40 nM; at human (hACC2) (Table 2b, additional results), 10 to 40 nM.
Regarding `COc1ccc(F)cc1[C@H](Cn1c(=O)n(C(C)(C)C(=O)NCC(C)C)c(=O)c2c(C)c(-n3nccn3)sc21)OC1CCOCC1` [Compound I-29, (R)-2-(1-(2-(5-fluoro-2-methoxyphenyl)-2-((tetrahydro-2H-pyran-4-yl)oxy)ethyl)-5-methyl-2,4-dioxo-6-(2H-1,2,3-triazol-2-yl)-1,4-dihydro-thieno[2,3-d]pyrimidin-3(2H)-yl)-N-isobutyl-2-methylpropanamide], the MIC in the assay on C. albicans (setting [3]) lay in the range of 0.25 to 1 µg/mL (≈ 0.389 to 1.56 µM); in the assay on C. albicans (setting [4]), 0.06 to 0.249 µg/mL (≈ 0.0933 to 0.387 µM); in the assay on C. parapsilosis (setting [15]) it was 0.25 to 1 µg/mL (≈ 0.389 to 1.56 µM); with C. parapsilosis (setting [16]) it was 0.25 to 1 µg/mL (≈ 0.389 to 1.56 µM). Further, the IC90 in the assay with Septoria tritici (St) (setting [5]) is 10 µg/mL (≈ 15.6 µM); with Septoria tritici (St) (setting [6]) it was more than 50 µg/mL; with Rhizoctonia solani (Rs) (setting [7]), 2 µg/mL (≈ 3.11 µM); with Rhizoctonia solani (Rs) (setting [8]), 2 µg/mL (≈ 3.11 µM); in assay [1] (setting [9]), more than 50 µg/mL; in [1] (setting [10]), more than 50 µg/mL. The IC90 (in assay [2] (setting [11]); in assay [2] (setting [12]); in the assay on Diplodia maydis (Dm) (setting [13]); with Diplodia maydis (Dm) (setting [14]); in the assay with Botrtyis cinerea (Bc) (setting [17]); in the assay with Botrtyis cinerea (Bc) (setting [18])) was 0.4 µg/mL (≈ 0.622 µM) each time. Also, the IC50 was in the range of 1 to 5 nM at fungal (fACC2) (Table 2a); 1 to 5 nM at fungal (fACC2) (Table 2b, additional results); 5 to 10 nM at human (hACC2) (Table 2a); 5 to 10 nM against human (hACC2) (Table 2b, additional results).
